Consider 13 molecules from article PMC7667639, “Optimized Opioid-Neurotensin Multitarget Peptides: From Design to Structure–Activity Relationship Studies” (Journal of Medicinal Chemistry, 2020).

Like-named read-outs stand apart in the source and are kept apart here. Numbered stars: 1 amine (or outer) side, 2 acyl side, 3 side chain; on linkers, the order of the positions; unused ones are H or OH. Square brackets hold non-standard residues; d marks the D form. Peptide text beside a SMILES is read from it. (6-OH)Tic = 6-hydroxy-1,2,3,4-tetrahydroisoquinoline-3-carboxylic acid, O=C([C@@H]1Cc2cc(O[*:3])ccc2CN1[*:1])[*:2]; X1 = O=C1[C@@H](N[*:1])Cc2ccccc2CN1CCC(=O)[*:2]; X2 = O=C([C@@H]1Cc2cc(O)ccc2CN1[*:1])[*:2]; Dmt = Cc1cc(O)cc(C)c1C[C@H](N)C(=O)O; Tle = CC(C)(C)[C@H](N)C(=O)O; β3hK = NCCCC[C@H](N)CC(=O)O

One data set addresses T1, human MOR (Homo sapiens, UniProt P35372).
T1 construct: host or cells: CHO (CHO-hMOR)
The format is biochemical. As to conditions: in words.

A further data set concerns the target T2, human DOR (Homo sapiens, UniProt P41143).
T2 construct: host or cells: CHO (CHO-hDOR)
Briefly: [35S]GTPγS binding assay, CHO-hDOR membranes. The format is biochemical. The following applies: in words. On the technique in general: Binding of GTPγS marks nucleotide exchange on a G protein.

The target of the next data set is T3, human KOR (Homo sapiens, UniProt P41145).
T3 construct: host or cells: CHO (CHO-hKOR)
As to the kind of experiment: [35S]GTPγS binding assay, CHO-hKOR membranes. The class given is biochemical. The following applies: in words.

The next data set concerns NTS2. On the set-up: method as in PMID 27359371. The following applies: in words; cited from earlier work.
The conditions of data set [1]: cited from earlier work.
For data set [2], the target named is T4, human NTS2 receptor (Homo sapiens, UniProt O95665).
T4 construct: host or cells: 1321N1 (human astrocytoma)
Briefly: Competitive radioligand binding ([125I]-NT), 1321N1-hNTS2 membranes. The following applies: ratio of Ki values NTS1 vs NTS2.

In data set [3] the target is T5, human NTS1 (Homo sapiens, UniProt P30989). Briefly: cell-based. On the set-up: expressed in transfected cells; host or cells: HEK293 (transfected with PEI).
Data set [4] deals with T4, human NTS2 receptor. As to conditions: cited from earlier work; for Ki: human receptor, 1321N1 membranes, read-out: affinity Ki NTS2; for selectivity NTS2/NTS1: ratio of Ki values.
For data set [5], the target named is T5, human NTS1. On the set-up: host or cells: CHO-K1. The following applies: CHO membranes, read-out: affinity Ki NTS1; cited from earlier work.
Data set [6] deals with human neurotensin 1 receptor (human) (UniProt P30989).
Data set [7] has as its target human δ-opioid receptor (human) (UniProt P41143).
For data set [8], the target named is human κ-opioid receptor (human) (UniProt P41145).
Data set [9] addresses human μ-opioid receptor (human) (UniProt P35372).
The target in data set [10] is human δ-opioid receptor (human) (UniProt P41143). Briefly: radioligand binding; competition on membranes (15–20 μg) of CHO cells stably expressing hMOR, hDOR or hKOR; radioligands [3H]DAMGO (hMOR), [3H]diprenorphine (hDOR), [3H]U69,593 (hKOR); 50 mM Tris-HCl pH 7.4, 60 min, 25 °C, filtration; Ki by Cheng and Prusoff.
Data set [11] deals with human κ-opioid receptor (human) (UniProt P41145). The data set is described as above.
Data set [12] deals with human μ-opioid receptor (human) (UniProt P35372). Described as above.
The target in data set [13] is human neurotensin 1 receptor (human) (UniProt P30989). As to the kind of experiment: radioligand binding; competition with [125I]-NT on membranes (15–20 μg) of CHO cells (hNTS1) or 1321N1 astrocytoma cells (hNTS2); binding buffer 10 mM Tris, 1 mM EDTA pH 7.5, peptides diluted with 50 mM Tris-HCl and 0.2% BSA; 60 min, ambient temperature, filtration; Ki by Cheng and Prusoff.

Data set [14] has as its target human neurotensin 2 receptor (human) (UniProt O95665). The data set is described as above.

Turning to `Cc1cc(O)cc(C)c1C[C@H](N)C(=O)N[C@H](CCCCN)C(=O)N[C@@H](Cc1ccccc1)C(=O)N[C@@H](Cc1ccccc1)C(=O)N[C@@H](CCCCN)C(=O)N[C@@H](CCCCN)C(=O)N1CCC[C@H]1C(=O)N[C@@H](Cc1ccccc1)C(=O)N[C@H](C(=O)N[C@@H](CC(C)C)C(=O)O)C(C)(C)C` [PK20] (H-[Dmt][dK]FFKKPF[Tle]L-OH), on human MOR, the “functional profile at the MOR (G protein activation)” value (shortened to “functional profile at the MOR”) was “potent full agonist”. For the same molecule, the “functional profile at the DOR” value on human DOR was “weak partial agonist”. The “functional profile at the KOR” value on human KOR is recorded as “relatively potent KOR partial agonist”.

On to `COc1cccc(OC)c1-c1cc(C(=O)NC2(C(=O)O)C3CC4CC(C3)CC2C4)nn1-c1ccnc2cc(Cl)ccc12` (stereo not shown) [SR48692], for which the “activity at NTS2 in the FLIPR assay” value in the data set with NTS2 is on record as “full agonist activity”.

Take `COc1cccc(OC)c1-c1cc(C(=O)NC2(C(=O)O)C3CC4CC(C3)CC2C4)nn1-c1ccc(C(=O)N(C)CCCN(C)C)cc1C(C)C` (stereo not shown) [SR142948a]: in the data set with NTS2, the “activity at NTS2 in the FLIPR assay” value is “full agonist activity”.

Turning to `Cc1cc(O)cc(C)c1C[C@H](NC(=O)[C@@H]1CCCN1C(=O)[C@H](CCCNC(=N)N)NC(=O)[C@H](CCCNC(=N)N)NC(=O)CCN1Cc2ccccc2C[C@H](NC(=O)[C@@H](CCCNC(=N)N)NC(=O)[C@@H](N)Cc2c(C)cc(O)cc2C)C1=O)C(=O)N[C@H](C(=O)N[C@@H](CC(C)C)C(=O)O)C(C)(C)C` [compound 5, H-Dmt-D-Arg-Aba-β-Ala-Arg-Arg-Pro-Dmt-Tle-Leu-OH] (H-[Dmt][dR][X1]RRP[Dmt][Tle]L-OH), the “functional profile at the MOR” value on human MOR is on record as “very potent agonists”.

Regarding `CC(C)C[C@H](NC(=O)[C@@H](NC(=O)[C@@H]1Cc2cc(O)ccc2CN1C(=O)[C@@H]1CCCN1C(=O)[C@H](CCCCN)NC(=O)C[C@@H](N)CCCCN)C(C)(C)C)C(=O)O` [peptide 2] (H-[β3hK]KP[X2][Tle]L-OH), the “plasma stability t1/2” value in data set [1] is recorded as above 24 h.

As for `Cc1cc(O)cc(C)c1C[C@H](N)C(=O)N[C@H](CCCNC(=N)N)C(=O)N[C@H]1Cc2ccccc2CN(CCC(=O)N[C@@H](CCCNC(=N)N)C(=O)N[C@@H](CCCNC(=N)N)C(=O)N2CCC[C@H]2C(=O)N[C@@H](Cc2ccc(O)cc2)C(=O)N[C@H](C(=O)N[C@@H](CC(C)C)C(=O)O)C(C)(C)C)C1=O` [peptide 3, H-Dmt-D-Arg-Aba-β-Ala-Arg-Arg-Pro-Tyr-Tle-Leu-OH] (H-[Dmt][dR][X1]RRPY[Tle]L-OH), on human MOR, the “functional profile at the MOR” value is listed as “very potent agonists”.

For `Cc1cc(O)cc(C)c1C[C@H](N)C(=O)N[C@H](CCCNC(=N)N)C(=O)N[C@H]1Cc2ccccc2CN(CCC(=O)N[C@@H](CCCNC(=N)N)C(=O)N[C@@H](CCCNC(=N)N)C(=O)N2CCC[C@H]2C(=O)N2Cc3ccc(O)cc3C[C@H]2C(=O)N[C@H](C(=O)N[C@@H](CC(C)C)C(=O)O)C(C)(C)C)C1=O` [peptide 9, H-Dmt-D-Arg-Aba-β-Ala-Arg-Arg-Pro-(6-OH)Tic-Tle-Leu-OH] (H-[Dmt][dR][X1]RRP[X2][Tle]L-OH), at human NTS2 receptor [2], the “selectivity NTS2/NTS1” value was above 2700. Also, the “functional profile at the MOR” value at human MOR is “very potent agonists”. Also, at human NTS1 [3], the 50% effective concentration (EC50) is around 2000 nM and the “fold decrease in NTS1 activity (EC50) compared to NT(8-13)” value is 13,000 fold. In addition, the “fold decrease in NTS1 activity (EC50) compared to 1” value at human NTS1 [3] (vs 1) is given as “ca. 1000 fold”.

As to “H-Arg-Arg-Pro-(6-OH)Tic-Tle-Leu-OH (H-RRP[(6-OH)Tic][Tle]L-OH; SMILES CC(C)C[C@H](NC(=O)[C@@H](NC(=O)[C@@H]1Cc2cc(O)ccc2CN1C(=O)[C@@H]1CCCN1C(=O)[C@H](CCCNC(=N)N)NC(=O)[C@@H](N)CCCNC(=N)N)C(C)(C)C)C(=O)O) [compound 15]”, the inhibition constant (Ki) in the data set with human NTS2 receptor [4] is 132 ± 47 nM; with human NTS1 [5] it was 6680 ± 3700 nM.

Consider “H-Arg-Arg-Pro-(6-OH)Tic-Tle-Leu-OH [compound 15]”, for which, on human NTS2 receptor [4], the “selectivity NTS2/NTS1” value is given as 50.

For the molecule “H-Arg-Arg-Pro-Dmt-Tle-Leu-OH [compound 14]”, at human NTS2 receptor [4], the Ki is 3 ± 2 nM and the “selectivity NTS2/NTS1” value was 4.5. Moreover, on human NTS1 [5], the Ki is 13.4 ± 2 nM.

With “H-Arg-Arg-Pro-m-Tyr-Tle-Leu-OH [compound 16]”, on human NTS2 receptor [4], the Ki is 24 ± 18 nM and the “selectivity NTS2/NTS1” value is given as 4. In addition, the Ki at human NTS1 [5] was 93 ± 22 nM.

With “H-β^3hArg-Arg-Pro-Dmt-Tle-Leu-OH [peptide 13]”, on human NTS2 receptor [4], the inhibitory constant (Ki) is 0.11 ± 0.07 nM and the “selectivity NTS2/NTS1” value is recorded as 20.1. Moreover, the Ki on human NTS1 [5] was 2.3 ± 0.2 nM.

On to PK20 (peptide), for which, in data set [6], the NTS1 Gαq activation (BRET), EC50 amounted to 19.1 nM and the NTS1 Gαq activation (BRET), Emax (% of NT(8-13)) was found to be 101%. Further, in data set [7], the DOR [^35S]GTPγS binding, EC50 amounted to 479 nM and the DOR [^35S]GTPγS binding, Emax (% of DPDPE) came out at 78%. In data set [8], this molecule returned a KOR [^35S]GTPγS binding, EC50 of 47.1 nM and a KOR [^35S]GTPγS binding, Emax (% of U69,593) of 65%. Further, in data set [9], the MOR [^35S]GTPγS binding, EC50 was found to be 13.3 nM; the MOR [^35S]GTPγS binding, Emax (% of DAMGO) is 91%; the MOR β-arrestin-2 recruitment, EC50 is 956 nM; the MOR β-arrestin-2 recruitment, Emax (% of DAMGO) stood at 69%. For the same molecule, the inhibition constant (Ki) in [10] was 46.4 nM. Moreover, the Ki in data set [11] is 33.5 nM. In data set [12], this molecule yielded a Ki of 4.13 nM. Further, in [13], the Ki stood at 188 nM. The inhibition constant (Ki) in data set [14] was found to be 29.5 nM.

For orientation: EC50 means the midpoint of the concentration-response curve. What is called Ki is the equilibrium dissociation constant of an inhibitor or competing ligand from its target.
